According to patent publication US10517889B2, “Modulators of SMAD7 expression” (Ionis Pharmaceuticals, Inc., priority 2017, dated 2019):
Strand notation (5' to 3'): a small letter for the sugar, then the base; units joined by * are phosphorothioate-linked, units joined directly phosphodiester-linked; [ ] holds rarer units or linkages, { } end groups; capitals alone tell only the bases. e = 2'-O-(2-methoxyethyl) (MOE); [5mC] = 5-methylcytosine; d = 2'-deoxy (DNA)

Legend:
human SMAD7 mRNA [1] = assay: Antisense inhibition of human SMAD7 mRNA expression in Hep3B cells by 5-10-5 MOE gapmers, single concentration, electroporation, RT-PCR (Example 1, Study 1 and 2); assay type: cell-based; details: for % Inhibition of SMAD7 mRNA: electroporation with 15,000 nM antisense oligonucleotide (Study 2)
Method in brief: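 Readout is percent SMAD7 mRNA inhibition versus untreated cells, measured by qRT-PCR (RTS5062) and corrected for total RNA by RIBOGREEN. Oligonucleotide, 5,000 nM or 15,000 nM, was delivered by electroporation into Hep3B cells at 20,000 per well. RNA was collected about 24 h later.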

human SMAD7 mRNA [2] = assay: Dose-dependent inhibition of human SMAD7 mRNA expression in Hep3B cells (Example 3, Study 1 and 2); assay type: cell-based; details: electroporation; for % inhibition of SMAD7 mRNA expression: approximately 16 hours; for IC50: Study 1 (312.5-20000 nM)
Method in brief: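 Hep3B cells, 20,000 per well, electroporated with antisense oligonucleotide at 0.31, 1.25, 5.00 or 20.00 μM (first series) or 0.74, 2.22, 6.67 or 20.00 μM (second series). After ~16 h, SMAD7 mRNA measured by RT-qPCR (RTS5062), normalised to RIBOGREEN total RNA. Percent inhibition vs untreated cells; IC50 derived.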

[3] = electroporation, 15,000 nM, approximately 24 hours, relative to untreated control cells, gapmers targeting SEQ ID NO: 1 and 2
[4] = 312.5 nM, Study 1, relative to untreated control cells
[5] = electroporation, 15,000 nM antisense oligonucleotide (Study 2), 5-10-5 MOE gapmers targeting SEQ ID NO: 1 and 2
[6] = Study 2, electroporation with 15,000 nM antisense oligonucleotide, 5-10-5 MOE gapmers targeting SEQ ID NO: 1 and 2
[7] = 5-10-5 MOE gapmers targeting SEQ ID NO: 1 and 2

| Substance | % inhibition of SMAD7 mRNA expression (human SMAD7 mRNA [2]; [4]) [%] | % inhibition of SMAD7 mRNA expression (human SMAD7 mRNA [2]; 1250.0 nM, Study 1) [%] | % inhibition of SMAD7 mRNA expression (human SMAD7 mRNA [2]; 5000.0 nM, Study 1) [%] | % inhibition of SMAD7 mRNA expression (human SMAD7 mRNA [2]; 20000.0 nM, Study 1) [%] | IC50 (human SMAD7 mRNA [2]) [µM] | % inhibition of SMAD7 mRNA expression (human SMAD7 mRNA [1]; [5]) [%] | also measured |
| --- | --- | --- | --- | --- | --- | --- | --- |
| 771661 (antisense eA*eA*eT*eG*e[5mC]*dT*dT*d[5mC]*dT*d[5mC]*dT*dT*dG*dT*dT*e[5mC]*eA*eT*eT*eT) [compound 771661] | 0 | 0 | 6 | 28 | > 20 | – | % inhibition of SMAD7 mRNA expression (human SMAD7 mRNA [1]; [3]): 69% |
| 771762 (antisense eG*eT*e[5mC]*eA*e[5mC]*d[5mC]*dA*d[5mC]*d[5mC]*dG*dA*dT*dG*d[5mC]*dA*eT*e[5mC]*e[5mC]*eA*eA) [compound 771762] | 0 | 0 | 38 | 67 | – | 72 | – |
| 771786 (antisense eA*eG*e[5mC]*eT*e[5mC]*dA*dA*dA*d[5mC]*dT*dT*dT*dG*dA*dA*eG*e[5mC]*e[5mC]*eT*eT) [compound 771786] | 2 | 0 | 53 | 40 | > 20 | 56 | – |
| 771345 (antisense eA*e[5mC]*eA*eG*e[5mC]*dA*dT*d[5mC]*dT*dG*dG*dA*d[5mC]*dA*dG*eT*e[5mC]*eA*eG*eT) [compound 771345] | 6 | 19 | 49 | 69 | 6 | – | % inhibition of SMAD7 mRNA expression (human SMAD7 mRNA [1]; electroporation, 15,000 nM, approximately 24 hours, gapmers targeting SEQ ID NO: 3 and 4): 54% |
| 771793 (antisense eA*eA*eG*eT*e[5mC]*d[5mC]*d[5mC]*dT*dA*dA*d[5mC]*dG*dA*d[5mC]*d[5mC]*eA*eG*eG*e[5mC]*e[5mC]) [compound 771793] | 16 | 33 | 38 | 57 | 12 | 58 | – |
| 771836 (antisense eT*eG*eT*eT*eG*dA*dG*dG*dA*d[5mC]*dT*d[5mC]*d[5mC]*d[5mC]*d[5mC]*eA*eG*e[5mC]*e[5mC]*eA) [compound 771836] | 6 | 25 | 22 | 41 | > 20 | – | % Inhibition (human SMAD7 mRNA [1]; [6]): 28% |
| 771441 (e[5mC]*eG*eA*eG*eG*dG*d[5mC]*dG*dG*d[5mC]*dT*dG*d[5mC]*dG*d[5mC]*eA*eG*eG*e[5mC]*eT; antisense) [compound 771441] | 0 | 5 | 45 | 64 | 9 | 10 | % Inhibition of SMAD7 mRNA (human SMAD7 mRNA [1]; [7]): 60% |
| 771479 (antisense eG*eG*eG*eA*eA*d[5mC]*dA*d[5mC]*d[5mC]*dT*dT*dG*dT*dG*dT*eA*e[5mC]*e[5mC]*eA*eA) [compound 771479] | 0 | 8 | 49 | 74 | 7 | – | % inhibition of SMAD7 mRNA expression (human SMAD7 mRNA [1]; [6]): 58% |
| 771838 (antisense eG*eA*eA*e[5mC]*eT*d[5mC]*d[5mC]*dT*dG*d[5mC]*dA*dG*dG*dA*dT*eG*eA*eG*eG*eG) [compound 771838] | 0 | 24 | 26 | 43 | > 20 | – | % Inhibition (human SMAD7 mRNA [1]; [6]): 53% |
| 771397 (antisense eG*eA*eG*e[5mC]*eG*dG*d[5mC]*dG*dG*d[5mC]*dG*dG*d[5mC]*d[5mC]*d[5mC]*eG*eA*eG*eG*eG) [compound 771397] | 0 | 0 | 41 | 51 | 15 | 55 | – |
| 771671 (antisense eT*e[5mC]*eA*eG*eG*dA*dG*dT*d[5mC]*d[5mC]*dT*dT*dT*d[5mC]*dT*e[5mC]*eT*e[5mC]*eT*e[5mC]) [compound 771671] | 0 | 9 | 27 | 49 | > 20 | – | % inhibition of SMAD7 mRNA expression (human SMAD7 mRNA [1]; [6]): 69% |
| 771414 (eT*e[5mC]*eG*eG*e[5mC]*dT*dG*dT*d[5mC]*d[5mC]*dG*dT*d[5mC]*dG*d[5mC]*e[5mC]*e[5mC]*e[5mC]*eT*eT; antisense) [compound 771414] | 0 | 2 | 43 | 33 | > 20 | – | % inhibition of SMAD7 mRNA expression (human SMAD7 mRNA [1]; [3]): 65% |
| 278478 (antisense eA*e[5mC]*eA*eT*eG*dA*d[5mC]*d[5mC]*dT*d[5mC]*d[5mC]*dG*d[5mC]*dA*d[5mC]*eA*e[5mC]*e[5mC]*eA*eT) [compound 278478] | 0 | 9 | 19 | 22 | > 20 | 18 | % Inhibition of SMAD7 mRNA (human SMAD7 mRNA [1]; [7]): 54% |
| 771607 (antisense eG*eG*eT*eG*eA*dG*d[5mC]*dA*dA*dT*dA*d[5mC]*dT*dG*dT*eG*eA*eG*eG*eG) [compound 771607] | – | – | – | – | – | – | % inhibition of SMAD7 mRNA expression (human SMAD7 mRNA [1]; [6]): 34% |
| 771591 (antisense e[5mC]*eA*eG*eA*eA*dG*d[5mC]*d[5mC]*dT*dG*dT*dG*dG*dA*d[5mC]*eA*eG*eG*e[5mC]*e[5mC]) [compound 771591] | – | – | – | – | – | – | % inhibition of SMAD7 mRNA expression (human SMAD7 mRNA [1]; [6]): 50% |
| 771653 (antisense eT*eG*e[5mC]*eT*e[5mC]*dA*dT*dT*dG*dA*dG*d[5mC]*dT*dA*dA*eG*eA*eA*e[5mC]*eA) [compound 771653] | – | – | – | – | – | – | % inhibition of SMAD7 mRNA expression (human SMAD7 mRNA [1]; [3]): 33% |
| 771442 (e[5mC]*eT*e[5mC]*eT*eT*dG*dA*d[5mC]*dT*dT*d[5mC]*d[5mC]*dG*dA*dG*eG*eA*eA*eT*eG; antisense) [compound 771442] | – | – | – | – | – | 22 | – |
| 771662 (antisense eA*eT*eG*eA*eG*dA*dA*dT*dG*d[5mC]*dT*dT*d[5mC]*dT*d[5mC]*eT*eT*eG*eT*eT) [compound 771662] | – | – | – | – | – | – | % inhibition of SMAD7 mRNA expression (human SMAD7 mRNA [1]; [6]): 29% |
| 771498 (antisense e[5mC]*eT*eG*eT*eT*dG*dA*dA*dG*dA*dT*dG*dA*d[5mC]*d[5mC]*eT*e[5mC]*eT*eA*eG) [compound 771498] | – | – | – | – | – | 48 | – |
| 771800 (antisense eG*eA*e[5mC]*eA*eG*d[5mC]*dA*dG*dA*d[5mC]*dA*dG*dG*d[5mC]*dA*eA*eA*eA*eT*eG) [compound 771800] | – | – | – | – | – | 12 | % Inhibition of SMAD7 mRNA (human SMAD7 mRNA [1]; [7]): 32% |
| 771537 (antisense e[5mC]*eA*eA*eA*eG*dA*dG*d[5mC]*dG*dA*dA*dA*d[5mC]*dA*dA*eA*eA*e[5mC]*eA*eG) [compound 771537] | – | – | – | – | – | 16 | – |
| 771700 (antisense eT*eA*eT*eG*e[5mC]*dA*d[5mC]*dA*d[5mC]*dT*d[5mC]*dT*d[5mC]*d[5mC]*d[5mC]*eA*eG*eG*eA*eG) [compound 771700] | – | – | – | – | – | – | % Inhibition (human SMAD7 mRNA [1]; [6]): 9% |
| 771566 (antisense eG*eA*e[5mC]*eA*e[5mC]*dA*dA*dA*dA*d[5mC]*dA*dA*dA*dG*dA*eG*e[5mC]*eA*e[5mC]*eG) [compound 771566] | – | – | – | – | – | – | % inhibition of SMAD7 mRNA expression (human SMAD7 mRNA [1]; [6]): 28% |
| 771449 (eT*e[5mC]*eG*e[5mC]*eA*dG*dA*dG*dT*d[5mC]*dG*dG*d[5mC]*dT*dA*eA*eG*eG*eT*eG; antisense) [compound 771449] | – | – | – | – | – | 0 | % Inhibition of SMAD7 mRNA (human SMAD7 mRNA [1]; [7]): 4% |
| 771398 (antisense eG*eG*e[5mC]*eA*eG*dG*dA*dG*d[5mC]*dG*dG*d[5mC]*dG*dG*d[5mC]*eG*eG*e[5mC]*e[5mC]*e[5mC]) [compound 771398] | – | – | – | – | – | – | % Inhibition (human SMAD7 mRNA [1]; [6]): 48%; % inhibition of SMAD7 mRNA expression (human SMAD7 mRNA [1]; electroporation, 5,000 nM, approximately 24 hours, relative to untreated control cells, gapmers targeting SEQ ID NO: 1 and 2): 53% |
| 771942 (antisense eG*eT*e[5mC]*eG*eG*dT*d[5mC]*dA*dG*dG*dG*d[5mC]*d[5mC]*dT*dT*eG*e[5mC]*e[5mC]*e[5mC]*eT) [compound 771942] | – | – | – | – | – | – | % Inhibition (human SMAD7 mRNA [1]; [6]): 11% |
| 771817 (antisense eG*eG*eA*eA*eT*dT*dA*dT*dG*dA*d[5mC]*dA*d[5mC]*dA*dG*eT*eA*eA*e[5mC]*eA) [compound 771817] | – | – | – | – | – | 19 | – |
| 771949 (antisense eA*eG*eA*eT*e[5mC]*dT*dT*dT*d[5mC]*dA*dA*d[5mC]*dT*dG*dG*eA*eT*eG*eG*eA) [compound 771949] | – | – | – | – | – | – | % inhibition of SMAD7 mRNA expression (human SMAD7 mRNA [1]; [3]): 26% |
| 771593 (antisense e[5mC]*eG*e[5mC]*eT*eG*d[5mC]*dT*d[5mC]*dA*dG*dA*dA*dG*d[5mC]*d[5mC]*eT*eG*eT*eG*eG) [compound 771593] | – | – | – | – | – | 41 | – |
